Molecular target: T1, Polyunsaturated fatty acid 5-lipoxygenase (Homo sapiens, UniProt P09917)
T1 sequence (P09917 whole entry): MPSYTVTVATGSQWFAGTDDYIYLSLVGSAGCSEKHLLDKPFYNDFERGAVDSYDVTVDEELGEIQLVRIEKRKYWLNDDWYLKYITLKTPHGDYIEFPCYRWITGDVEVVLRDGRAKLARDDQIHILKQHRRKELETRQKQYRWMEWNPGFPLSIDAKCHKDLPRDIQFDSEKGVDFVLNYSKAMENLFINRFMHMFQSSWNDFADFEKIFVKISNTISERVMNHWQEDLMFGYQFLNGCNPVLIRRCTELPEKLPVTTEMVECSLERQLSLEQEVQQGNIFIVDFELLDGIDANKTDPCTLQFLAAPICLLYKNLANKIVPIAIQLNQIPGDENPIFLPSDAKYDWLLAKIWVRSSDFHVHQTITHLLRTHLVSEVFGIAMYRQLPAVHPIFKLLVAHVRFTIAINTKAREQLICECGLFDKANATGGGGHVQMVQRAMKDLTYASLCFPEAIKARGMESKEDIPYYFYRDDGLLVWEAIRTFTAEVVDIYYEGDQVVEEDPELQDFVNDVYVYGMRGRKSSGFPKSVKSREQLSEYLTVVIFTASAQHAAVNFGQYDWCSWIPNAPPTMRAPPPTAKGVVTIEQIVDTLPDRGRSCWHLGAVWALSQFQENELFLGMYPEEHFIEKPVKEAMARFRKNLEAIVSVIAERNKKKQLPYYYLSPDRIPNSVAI
Experiment: Inhibition of lipoxygenase 5 product formation from endogenous substrate in Calcium and ionophore-stimulated polymorphonuclear leukocyte

SMILES | IC50
CC(=O)O[C@@H]1CC[C@@]2(C)[C@@H](CC[C@]3(C)[C@@H]2C(=O)C=C2[C@@H]4[C@@H](C)[C@H](C)CC[C@]4(C)CC[C@]23C)[C@@]1(C)C(=O)O [AKBA] | 2700 nM
C[C@H]1[C@H](C)CC[C@]2(C)CC[C@]3(C)C(=CC(=O)[C@@H]4[C@@]5(C)CC[C@@H](O)[C@](C)(C(=O)O)[C@@H]5CC[C@]43C)[C@H]12 [11-KETO BOSWELLIC ACID] | 3000 nM
CC(=O)O[C@@H]1CC[C@]2(C)C3=CC=C4[C@@H]5[C@@H](C)[C@H](C)CC[C@]5(C)CC[C@@]4(C)[C@]3(C)CC[C@H]2[C@@]1(C)C(=O)O | 750 nM

From ChEMBL document CHEMBL1155562, “Workup-dependent formation of 5-lipoxygenase inhibitory boswellic acid analogues” (J Nat Prod, 2000)
